Earlier results, collected in patent US20190203187A1, “CHEMILUMINESCENT WETNESS INDICATOR FOR ABSORBENT PRODUCTS” (International Paper Company, priority 2014, published 2019).

Assays:
[1] = target: T1, apoaequorin (Aequorea victoria, UniProt P07164); settings: for luminescence intensity relative to coelenterazine (native form): coelenterazine-apoaequorin (aequorin) complex
T1 sequence (P07164 8-196): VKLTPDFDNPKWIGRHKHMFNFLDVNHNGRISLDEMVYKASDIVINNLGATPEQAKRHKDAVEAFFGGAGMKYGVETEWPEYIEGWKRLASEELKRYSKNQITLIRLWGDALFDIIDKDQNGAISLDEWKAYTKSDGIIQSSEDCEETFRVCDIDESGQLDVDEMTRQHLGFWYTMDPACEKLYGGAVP

[2] = target: T2, Renilla Luciferase (Renilla reniformis, UniProt P27652)
T2 sequence (P27652 1-311): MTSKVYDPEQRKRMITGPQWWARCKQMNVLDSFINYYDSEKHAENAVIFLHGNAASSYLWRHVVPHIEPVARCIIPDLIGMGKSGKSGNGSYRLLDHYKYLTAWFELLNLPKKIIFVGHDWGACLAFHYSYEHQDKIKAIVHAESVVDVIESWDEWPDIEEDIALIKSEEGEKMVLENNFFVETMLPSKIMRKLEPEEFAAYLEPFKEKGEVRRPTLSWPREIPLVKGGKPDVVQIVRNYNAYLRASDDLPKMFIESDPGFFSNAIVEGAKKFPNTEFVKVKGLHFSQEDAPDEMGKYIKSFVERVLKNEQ

[3] = system: Gaussia luciferase (Gluc)

| Compound | luminescence intensity relative to coelenterazine (native form) [1] | quality as substrate for Renilla luciferase [2] | other results |
| --- | --- | --- | --- |
| Oc1ccc(-c2cn3c(O)c(Cc4ccc(F)cc4)nc3c(CC3CCCC3)n2)cc1 [coelenterazine fcp] | 135 times | poor substrate |  |
| coelenterazine f | 20 times |  | emission maximum longer than that of the native form ([1]; coelenterazine-apoaequorin complex): about 8 nm |
| Oc1ccc(Cc2nc3c(CC4CCCC4)nc(-c4ccc(O)cc4)cn3c2O)cc1 [coelenterazine cp] | 15 times |  |  |
| O=c1c(Cc2ccccc2)nc2c(Cc3ccccc3)[nH]c(-c3ccccc3)cn1-2 [coelenterazine 400a, coelenterazine 400a (2-2′(4-dehydroxy)) coelenterazine] |  | good substrate | emission maximum ([2]; substrate for Renilla luciferase, BRET): 400 nm; oxidation with Gaussia luciferase [3]: does not oxidize well |
| Oc1ccc(Cc2nc3c(Cc4ccccc4)nc4c(n3c2O)CCc2cc(O)ccc2-4)cc1 [coelenterazine e] |  |  | quality as substrate for apoaequorin [1]: poor substrates |
